Results: patent US20190369111A1, “MOLECULAR KINETICS EVALUATION METHOD AND SCREENING METHOD” (Tokyo University of Science Foundation, priority 2016, published 2019)

Target: T1, wild-type p53 protein (Mus musculus, UniProt P02340)
T1 construct: administered intraperitoneally to C57BL/6J wild-type mice; from tissue; host or cells: C57BL/6J wild-type mice: liver, kidneys, spleen, heart
Experiment: Degradation of wild-type p53 protein in each tissue of mouse after administration, Western blot analysis
Type: in vivo
Method: TIBC-CANDDY_MLN was dissolved in DMSO immediately before administration, and then dissolved in corn oil (Code No. 25606-55, Nacalai Tesque) so that the concentration of DMSO was 10 vol %, and then a dose of 50 mg/kg body weight or 100 mg/kg body weight was administered intraperitoneally to C57BL/6J wild-type mice (7 to 8 weeks old, male) (CLEA Japan, Inc.) (n=3). As a control, an injection carrier (corn oil containing 10 vol % DMSO) was used. The mice were kept under an environment of ad libitum access to food and water. The mice were dissected under deep anesthesia by Somnopentyl (Kyoritsu Seiyaku Corporation) 48 hours after administration. Abdominal section was performed, and then the liver, kidneys, spleen, and heart were sequentially extracted and flash frozen in liquid nitrogen. Each tissue frozen in liquid nitrogen was stored in a deep freezer at −80° C.
The frozen tissues (spleen: 0.02 g, other tissues: 0.04 g) were each frozen and triturated, and then 1×TKM tissue lysis buffer (50 mM triethanolamine (pH 7.8), 50 mM KCl, 5 mM MgCl2, 0.25 M sucrose, 1 mM PMSF, protein inhibitors cocktail-EDTA free (Code No. 03969-21, Nacalai Tesque), 1 mM DTT, and 5 μL/mL recombinant RNase inhibitor (40 U/μL, Cat No. 2313A, Lot No. K8402DA, TAKARA Bio)) were added in an amount of 490 μL for the spleen and 980 μL for the others, and dissolved by rotation for 15 minutes (1 rpm, 25° C.). Then, the resultant product was subjected to centrifugation (at 3000 rpm×15 minutes, 4° C.), and the supernatants (each tissue extract) was collected. The concentration of proteins in each tissue extract was quantified with a spectrophotometer using each tissue extract that had been diluted 20 times using DEPC-treated water.
Each tissue extract collected was subjected to Western blot analysis. An SDS-PAGE gel was prepared using TGX™ FastCast™ Acrylamide Kit, 12% (Bio-Rad). Electrophoresis samples were prepared in a 6×SDS-PAGE sample buffer (62.5 mM Tris-HCl pH 6.8, 2% SDS, 5% 2-mercaptoethanol, 10% glycerol, 0.25% BPB), and placed on a heat block at 95° C. for 5 minutes. The electrophoresis samples prepared were applied at 50 μg/well for detecting GAPDH, and at 100 μg/well for other detection. Electrophoresis was performed at 160 V for 60 minutes (electrophoresis buffer; 195 mM glycine, 25 mM Tris).
After electrophoresis, proteins were transferred to a PVDF membrane (Immobion™-P, Millipore) under conditions of 100 V and 1.5 hours using a tank-type blotting device and a transfer buffer (25 mM Tris-HCl, 195 mM glycine, 0.01% SDS, 15% methanol). The membrane was split into two at the position of a 25 kDa marker. The membrane after transfer was shaken and blocked in 5% skim milk/TBS-T (100 mM Tris-HCl, 150 mM NaCl, 0.1% Tween-20, pH 7.6) at room temperature for 30 minutes. After blocking, a primary antibody reaction was performed in 5% skim milk/TBS-T. As the primary antibody, an anti-p53 antibody (MAB1355, R&D Systems, Inc., diluted 500 times), an anti-MDM2 antibody (sc-965, SantaCruz, diluted 500 times), and an anti-GAPDH antibody (sc-32233, SantaCruz, diluted 20000 times) were used. The membrane was shaken at room temperature for 60 minutes, and then the membrane was washed with TBS-T for 5 minutes. […] Subsequently, the membrane was treated with a chemiluminescence reagent Immobilon™ Western (Millipore), and then chemiluminescence was detected using a lumino image analyzer LAS-3000 (FUJIFILM Corporation). Detected bands were quantified with an image processing software ImageJ (NIH).

T1 sequence (P02340 whole entry): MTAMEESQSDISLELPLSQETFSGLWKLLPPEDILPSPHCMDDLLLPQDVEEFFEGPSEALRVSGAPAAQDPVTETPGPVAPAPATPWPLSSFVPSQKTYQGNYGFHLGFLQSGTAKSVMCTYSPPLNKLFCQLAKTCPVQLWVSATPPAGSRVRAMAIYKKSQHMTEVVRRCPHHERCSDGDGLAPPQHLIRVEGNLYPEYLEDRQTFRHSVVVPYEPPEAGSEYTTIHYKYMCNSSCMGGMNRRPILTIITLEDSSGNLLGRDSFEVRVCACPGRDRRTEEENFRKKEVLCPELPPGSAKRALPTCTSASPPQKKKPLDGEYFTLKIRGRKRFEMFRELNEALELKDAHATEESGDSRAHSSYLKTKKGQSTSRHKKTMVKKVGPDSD

CC(C)C[C@H](NC(=O)CNC(=O)c1cc(Cl)ccc1Cl)C(=O)NCCCCCCC(=O)Nc1ccc(C(=O)/C=C/c2ccc(I)cc2)cc1 [TIBC-CANDDY_MLN]
amount of wild-type p53 protein in heart (intraperitoneal 50 or 100 mg/kg body weight, 48 hours after administration, heart): reduced in a concentration dependent manner
amount of wild-type p53 protein in kidneys (intraperitoneal 50 or 100 mg/kg body weight, 48 hours after administration, kidneys): reduction of the target was not found
amount of wild-type p53 protein in spleen (intraperitoneal 50 or 100 mg/kg body weight, 48 hours after administration, spleen): reduced in a concentration dependent manner
amount of wild-type p53 protein in liver (intraperitoneal, only at a dose of 100 mg/kg body weight, 48 hours after administration, liver): reduced slightly
transfer property to tissues (molecular kinetics) (suggested from p53 and MDM2 degradation in tissues): showed a higher transfer property to the heart, liver, and spleen as compared with the kidneys
